Data set [1] in a line: refractive index (Na D-line) (dimensionless); wn = mass fraction of the nth substance listed. Conditions: 81.5 kPa, Liquid, Standard Abbe refractometry.
Data set [2] in a line: refractive index (Na D-line) (dimensionless). Conditions: 298.2 K; 101.33 kPa; Liquid; Standard Abbe refractometry.
The conditions of data set [3]: 298.2 K; 101.33 kPa; Liquid; Vibrating tube method.

± gives the expanded uncertainty stated by the source.

Regarding `CC(C)c1ccccc1` [isopropylbenzene] + O, the refractive index amounted to 1.4915 ± 0.0014 in data set [1] (293.2 K, w2 = 0.0006); 1.3335 ± 0.0014 in data set [1] (293.2 K, w2 = 0.9998); 1.49001 ± 0.0014 in data set [1] (298.2 K, w2 = 0.0009); 1.333 ± 0.0014 in data set [1] (298.2 K, w2 = 0.9996); 1.4859 ± 0.0014 in data set [1] (308.2 K, w2 = 0.0011); 1.33195 ± 0.0014 in data set [1] (308.2 K, w2 = 0.9994).

`CC(C)c1ccccc1` [isopropylbenzene]: the refractive index in data set [2] is on record as 1.49005 ± 0.0014. In addition, the mass density in data set [3] is 857.54 ± 1.7 kg/m3.

`O` [water]: the refractive index in data set [2] was determined as 1.3325 ± 0.0014.

Values taken from the NIST ThermoML archive (doi:10.1021/acs.jced.7b00393).
